Test results as given in the supplement of paper PMC10307832.

Assays:
Assay in all cases: relative viability (nuclei count vs DMSO), 5 days (fraction); higher = more cells survive
NCI-H1648 = test system: NCI-H1648
Procedure, shortened: (§1)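 The day after seeding in 1536-well plates, lung cancer cell lines were treated by pin tool with a single drug, or with a fixed anchor-drug dose together with five library-drug doses (not always all listed) in √10 steps. After 5 days, a combined fix-and-stain solution (final 0.05% Triton X-100, 1% formaldehyde, 1 ug/ml Hoechst) was added. Nuclei counted on 4× images gave relative viability as treated counts over vehicle counts, reported as the median of duplicate plates.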

NCI-H2009 = test system: NCI-H2009
Procedure, shortened: as §1

HCC-78 = test system: HCC-78
Procedure, shortened: as §1

NCI-H358 = test system: NCI-H358
Procedure, shortened: as §1

NCI-H661 = test system: NCI-H661
Procedure, shortened: as §1

EBC-1 = test system: EBC-1
Procedure, shortened: as §1

A549 = test system: A549
Procedure, shortened: as §1

IA-LM = test system: IA-LM
Procedure, shortened: as §1

NCI-H2342 = test system: NCI-H2342
Procedure, shortened: as §1

NCI-H460 = test system: NCI-H460
Procedure, shortened: as §1

NCI-H522 = test system: NCI-H522
Procedure, shortened: as §1

Calu-6 = test system: Calu-6
Procedure, shortened: as §1

NCI-H1703 = test system: NCI-H1703
Procedure, shortened: as §1

NCI-H1299 = test system: NCI-H1299
Procedure, shortened: as §1

NCI-H1623 = test system: NCI-H1623
Procedure, shortened: as §1

COc1cc2nccc(Oc3ccc(NC(=O)Nc4cc(C)on4)c(Cl)c3)c2cc1OC [Tivozanib] + O=C(c1cc(Cc2n[nH]c(=O)c3ccccc23)ccc1F)N1CCN(C(=O)C2CC2)CC1 [Olaparib] (partner 8 µM)
relative viability (NCI-H1648; first compound 0.005 µM): 1
relative viability (NCI-H1648; first compound 0.01581 µM): 0.736
relative viability (NCI-H1648; first compound 0.05 µM): 0.799
relative viability (NCI-H1648; first compound 0.1581 µM): 1.25
relative viability (NCI-H1648; first compound 0.5 µM): 0.713
relative viability (NCI-H2009; first compound 0.005 µM): 0.655
relative viability (NCI-H2009; first compound 0.01581 µM): 0.703
relative viability (NCI-H2009; first compound 0.05 µM): 0.751
relative viability (NCI-H2009; first compound 0.1581 µM): 0.714
relative viability (NCI-H2009; first compound 0.5 µM): 0.542
relative viability (HCC-78; first compound 0.005 µM): 0.796
relative viability (HCC-78; first compound 0.01581 µM): 0.746
relative viability (HCC-78; first compound 0.05 µM): 0.732
relative viability (HCC-78; first compound 0.1581 µM): 0.872
relative viability (HCC-78; first compound 0.5 µM): 0.581
relative viability (NCI-H358; first compound 0.005 µM): 0.522
relative viability (NCI-H358; first compound 0.01581 µM): 0.612
relative viability (NCI-H358; first compound 0.05 µM): 0.583
relative viability (NCI-H358; first compound 0.1581 µM): 0.61
relative viability (NCI-H358; first compound 0.5 µM): 0.542
relative viability (NCI-H661; first compound 0.005 µM): 0.703
relative viability (NCI-H661; first compound 0.01581 µM): 0.708
relative viability (NCI-H661; first compound 0.05 µM): 0.741
relative viability (NCI-H661; first compound 0.1581 µM): 0.77
relative viability (NCI-H661; first compound 0.5 µM): 0.699
relative viability (EBC-1; first compound 0.005 µM): 0.642
relative viability (EBC-1; first compound 0.01581 µM): 0.704
relative viability (EBC-1; first compound 0.05 µM): 0.708
relative viability (EBC-1; first compound 0.1581 µM): 0.777
relative viability (EBC-1; first compound 0.5 µM): 0.736
relative viability (A549; first compound 0.005 µM): 0.349
relative viability (A549; first compound 0.01581 µM): 0.456
relative viability (A549; first compound 0.05 µM): 0.398
relative viability (A549; first compound 0.1581 µM): 0.0913
relative viability (A549; first compound 0.5 µM): 0.246
relative viability (IA-LM; first compound 0.005 µM): 0.867
relative viability (IA-LM; first compound 0.01581 µM): 0.891
relative viability (IA-LM; first compound 0.05 µM): 0.857
relative viability (IA-LM; first compound 0.1581 µM): 0.697
relative viability (IA-LM; first compound 0.5 µM): 0.672
relative viability (NCI-H2342; first compound 0.005 µM): 0.433
relative viability (NCI-H2342; first compound 0.01581 µM): 0.404
relative viability (NCI-H2342; first compound 0.05 µM): 0.465
relative viability (NCI-H2342; first compound 0.5 µM): 0.42
relative viability (NCI-H460; first compound 0.005 µM): 0.377
relative viability (NCI-H460; first compound 0.01581 µM): 0.469
relative viability (NCI-H460; first compound 0.05 µM): 0.496
relative viability (NCI-H460; first compound 0.1581 µM): 0.393
relative viability (NCI-H460; first compound 0.5 µM): 0.356
relative viability (NCI-H522; first compound 0.005 µM): 0.627
relative viability (NCI-H522; first compound 0.01581 µM): 0.635
relative viability (NCI-H522; first compound 0.05 µM): 0.651
relative viability (NCI-H522; first compound 0.1581 µM): 0.591
relative viability (NCI-H522; first compound 0.5 µM): 0.512
relative viability (Calu-6; first compound 0.005 µM): 0.581
relative viability (Calu-6; first compound 0.01581 µM): 0.618
relative viability (Calu-6; first compound 0.05 µM): 0.522
relative viability (Calu-6; first compound 0.1581 µM): 0.671
relative viability (Calu-6; first compound 0.5 µM): 0.519
relative viability (NCI-H1703; first compound 0.005 µM): 0.216
relative viability (NCI-H1703; first compound 0.01581 µM): 0.256
relative viability (NCI-H1703; first compound 0.05 µM): 0.241
relative viability (NCI-H1703; first compound 0.1581 µM): 0.177
relative viability (NCI-H1703; first compound 0.5 µM): 0.146
relative viability (NCI-H1299; first compound 0.005 µM): 0.969
relative viability (NCI-H1299; first compound 0.01581 µM): 1.01
relative viability (NCI-H1299; first compound 0.05 µM): 0.962
relative viability (NCI-H1299; first compound 0.1581 µM): 0.965
relative viability (NCI-H1299; first compound 0.5 µM): 0.844

Cc1sc2c(c1C)C(c1ccc(Cl)cc1)=N[C@@H](CC(=O)OC(C)(C)C)c1nnc(C)n1-2 [JQ1] + CCNC(=O)c1noc(-c2cc(C(C)C)c(O)cc2O)c1-c1ccc(CN2CCOCC2)cc1 [Luminespib] (partner 0.01 µM)
relative viability (NCI-H2009; first compound 0.04 µM): 0.971
relative viability (NCI-H2009; first compound 0.1265 µM): 0.657
relative viability (NCI-H2009; first compound 0.4 µM): 0.878
relative viability (NCI-H2009; first compound 1.265 µM): 0.295
relative viability (NCI-H2009; first compound 4 µM): 0.298
relative viability (NCI-H358; first compound 0.04 µM): 0.305
relative viability (NCI-H358; first compound 0.1265 µM): 0.398
relative viability (NCI-H358; first compound 0.4 µM): 0.401
relative viability (NCI-H358; first compound 1.265 µM): 0.385
relative viability (NCI-H358; first compound 4 µM): 0.27
relative viability (NCI-H661; first compound 0.04 µM): 0.971
relative viability (NCI-H661; first compound 0.1265 µM): 0.968
relative viability (NCI-H661; first compound 0.4 µM): 1.01
relative viability (NCI-H661; first compound 1.265 µM): 0.646
relative viability (NCI-H661; first compound 4 µM): 0.593
relative viability (NCI-H2342; first compound 0.04 µM): 0.633
relative viability (NCI-H2342; first compound 0.1265 µM): 0.569
relative viability (NCI-H2342; first compound 0.4 µM): 0.8
relative viability (NCI-H2342; first compound 1.265 µM): 0.739
relative viability (NCI-H2342; first compound 4 µM): 0.539
relative viability (NCI-H460; first compound 0.04 µM): 0.031
relative viability (NCI-H460; first compound 0.1265 µM): 0.0279
relative viability (NCI-H460; first compound 0.4 µM): 0.0618
relative viability (NCI-H460; first compound 1.265 µM): 0.032
relative viability (NCI-H460; first compound 4 µM): 0.0328
relative viability (NCI-H522; first compound 0.04 µM): 1.12
relative viability (NCI-H522; first compound 0.1265 µM): 1.21
relative viability (NCI-H522; first compound 0.4 µM): 0.677
relative viability (NCI-H522; first compound 1.265 µM): 0.601
relative viability (NCI-H522; first compound 4 µM): 0.504
relative viability (NCI-H1623; first compound 0.04 µM): 0.543
relative viability (NCI-H1623; first compound 0.1265 µM): 0.593
relative viability (NCI-H1623; first compound 0.4 µM): 0.459
relative viability (NCI-H1623; first compound 1.265 µM): 0.466
relative viability (NCI-H1623; first compound 4 µM): 0.418
